Results published in ChEMBL document CHEMBL1221222, “Analysis of the eukaryotic prenylome by isoprenoid affinity tagging” (Nat Chem Biol, 2009).
Each block holds one compound with its values, some of them ahead of it. Calls of active or inactive are those of the source. No cut-off for these calls is given here.

Key:
COS-7 [1] = experiment: Inhibition of FTase in african green monkey COS7 cells assessed as protein prenylation at 100 uM by Western blot analysis; format: cell-based
COS-7 [2] = experiment: Inhibition of FTase in african green monkey COS7 cells assessed as protein prenylation at 15 uM by Western blot analysis; format: cell-based
COS-7 [3] = experiment: Inhibition of GGTase-1 in african green monkey COS7 cells assessed as protein prenylation at >5 uM by Western blot analysis; format: cell-based
COS-7 [4] = experiment: Inhibition of RabGGTase in african green monkey COS7 cells assessed as Rab prenylation by Western blot analysis; format: cell-based
[5] = test system: Protein farnesyltransferase subunit beta (Homo sapiens), P49356 [W102T,Y154T,Y205T]; experiment: Binding affinity to FTase W102T/Y154T/Y205T mutant assessed as prenylation of dansyl-labeled GCVLL by fluorescence based assay
[6] = test system: Geranylgeranyl transferase type-1 subunit beta (Homo sapiens), P53609 [F52Y,F53Y,Y126T]; experiment: Binding affinity to GGTase-1 F52Y/F53Y/Y126T mutant assessed as prenylation of dansyl-labeled GCVLS by fluorescence based assay
[7] = test system: Protein farnesyltransferase subunit beta (Homo sapiens), P49356 [W102T,Y154T,Y205T]; experiment: Binding affinity at FTase W102T/Y154T/Y205T mutant assessed as prenylation of dansyl-labeled GCVLS by fluorescence based assay
[8] = test system: Geranylgeranyl transferase type-1 subunit beta (Homo sapiens), P53609 [F52Y,F53Y,Y126T]; experiment: Binding affinity to GGTase-1 F52Y/F53Y/Y126T mutant assessed as prenylation of dansyl-labeled GCVLL by fluorescence based assay
COS-7 [9] = experiment: Inhibition of RabGGTase in african green monkey COS7 cells assessed as Rab prenylation up to 50 uM by Western blot analysis; format: cell-based
COS-7 [10] = experiment: Inhibition of RabGGTase in african green monkey COS7 cells assessed as unprenylated Rab03D level by MudPIT analysis; format: cell-based
COS-7 [11] = experiment: Inhibition of RabGGTase in african green monkey COS7 cells assessed as unprenylated Rab08A level by MudPIT analysis; format: cell-based
COS-7 [12] = experiment: Inhibition of RabGGTase in african green monkey COS7 cells assessed as unprenylated Rab01A level by MudPIT analysis; format: cell-based
COS-7 [13] = experiment: Inhibition of RabGGTase in african green monkey COS7 cells assessed as unprenylated Rab34 level by MudPIT analysis; format: cell-based
COS-7 [14] = experiment: Inhibition of RabGGTase in african green monkey COS7 cells assessed as unprenylated Rab39B level by MudPIT analysis; format: cell-based
COS-7 [15] = experiment: Inhibition of RabGGTase in african green monkey COS7 cells assessed as unprenylated Rab14 level by MudPIT analysis; format: cell-based
COS-7 [16] = experiment: Inhibition of RabGGTase in african green monkey COS7 cells assessed as unprenylated Rab43 level by MudPIT analysis; format: cell-based
COS-7 [17] = experiment: Inhibition of RabGGTase in african green monkey COS7 cells assessed as unprenylated Rab41 level by MudPIT analysis; format: cell-based
COS-7 [18] = experiment: Inhibition of RabGGTase in african green monkey COS7 cells assessed as unprenylated Rab06A level by MudPIT analysis; format: cell-based
COS-7 [19] = experiment: Inhibition of RabGGTase in african green monkey COS7 cells assessed as unprenylated Rab11A level by MudPIT analysis; format: cell-based
COS-7 [20] = experiment: Inhibition of RabGGTase in african green monkey COS7 cells assessed as unprenylated Rab33B level by MudPIT analysis; format: cell-based
COS-7 [21] = experiment: Inhibition of RabGGTase in african green monkey COS7 cells assessed as unprenylated Rab04A level by MudPIT analysis; format: cell-based
COS-7 [22] = experiment: Inhibition of RabGGTase in african green monkey COS7 cells assessed as unprenylated Rab05C level by MudPIT analysis; format: cell-based
COS-7 [23] = experiment: Inhibition of RabGGTase in african green monkey COS7 cells assessed as unprenylated Rab07a level by MudPIT analysis; format: cell-based
COS-7 [24] = experiment: Inhibition of RabGGTase in african green monkey COS7 cells assessed as unprenylated Rab22A level by MudPIT analysis; format: cell-based
COS-7 [25] = experiment: Inhibition of RabGGTase in african green monkey COS7 cells assessed as unprenylated Rab03A level by MudPIT analysis; format: cell-based
COS-7 [26] = experiment: Inhibition of RabGGTase in african green monkey COS7 cells assessed as unprenylated Rab11B level by MudPIT analysis; format: cell-based
COS-7 [27] = experiment: Inhibition of RabGGTase in african green monkey COS7 cells assessed as unprenylated Rab31 level by MudPIT analysis; format: cell-based
COS-7 [28] = experiment: Inhibition of RabGGTase in african green monkey COS7 cells assessed as unprenylated Rab01B level by MudPIT analysis; format: cell-based
COS-7 [29] = experiment: Inhibition of RabGGTase in african green monkey COS7 cells assessed as unprenylated Rab35 level by MudPIT analysis; format: cell-based
COS-7 [30] = experiment: Inhibition of RabGGTase in african green monkey COS7 cells assessed as unprenylated Rab05A level by MudPIT analysis; format: cell-based
COS-7 [31] = experiment: Inhibition of RabGGTase in african green monkey COS7 cells assessed as unprenylated Rab06C level by MudPIT analysis; format: cell-based
COS-7 [32] = experiment: Inhibition of isoprenoid biosynthesis in african green monkey COS7 assessed as unprenylated Rab protein level by Western blot analysis; format: functional, cell-based; details: Chlorocebus aethiops
COS-7 [33] = experiment: Inhibition of RabGGTase in african green monkey COS7 cells assessed as unprenylated Rab30 level by MudPIT analysis; format: cell-based
COS-7 [34] = experiment: Inhibition of RabGGTase in african green monkey COS7 cells assessed as unprenylated Rab21 level by MudPIT analysis; format: cell-based
COS-7 [35] = experiment: Inhibition of RabGGTase in african green monkey COS7 cells assessed as unprenylated Rab15 level by MudPIT analysis; format: cell-based
COS-7 [36] = experiment: Inhibition of RabGGTase in african green monkey COS7 cells assessed as unprenylated Rab08B level by MudPIT analysis; format: cell-based
COS-7 [37] = experiment: Inhibition of RabGGTase in african green monkey COS7 cells assessed as unprenylated Rab27B level by MudPIT analysis; format: cell-based
COS-7 [38] = experiment: Inhibition of RabGGTase in african green monkey COS7 cells assessed as unprenylated Rab18 level by MudPIT analysis; format: cell-based
COS-7 [39] = experiment: Inhibition of RabGGTase in african green monkey COS7 cells assessed as unprenylated Rab06B level by MudPIT analysis; format: cell-based
COS-7 [40] = experiment: Inhibition of RabGGTase in african green monkey COS7 cells assessed as unprenylated Rab04B level by MudPIT analysis; format: cell-based
COS-7 [41] = experiment: Inhibition of RabGGTase in african green monkey COS7 cells assessed as unprenylated Rab37 level by MudPIT analysis; format: cell-based
COS-7 [42] = experiment: Inhibition of RabGGTase in african green monkey COS7 cells assessed as unprenylated Rab39A level by MudPIT analysis; format: cell-based
COS-7 [43] = experiment: Inhibition of RabGGTase in african green monkey COS7 cells assessed as unprenylated Rab03C level by MudPIT analysis; format: cell-based
COS-7 [44] = experiment: Inhibition of RabGGTase in african green monkey COS7 cells assessed as unprenylated Rab02B level by MudPIT analysis; format: cell-based
COS-7 [45] = experiment: Inhibition of RabGGTase in african green monkey COS7 cells assessed as unprenylated Rab05B level by MudPIT analysis; format: cell-based
COS-7 [46] = experiment: Inhibition of RabGGTase in african green monkey COS7 cells assessed as unprenylated Rab27A level by MudPIT analysis; format: cell-based
COS-7 [47] = experiment: Inhibition of RabGGTase in african green monkey COS7 cells assessed as unprenylated Rab10 level by MudPIT analysis; format: cell-based
COS-7 [48] = experiment: Inhibition of RabGGTase in african green monkey COS7 cells assessed as unprenylated Rab09B level by MudPIT analysis; format: cell-based
COS-7 [49] = experiment: Inhibition of RabGGTase in african green monkey COS7 cells assessed as unprenylated Rab09A level by MudPIT analysis; format: cell-based
COS-7 [50] = experiment: Inhibition of RabGGTase in african green monkey COS7 cells assessed as unprenylated Rab03B level by MudPIT analysis; format: cell-based
COS-7 [51] = experiment: Inhibition of RabGGTase in african green monkey COS7 cells assessed as unprenylated Rab13 level by MudPIT analysis; format: cell-based
COS-7 [52] = experiment: Inhibition of RabGGTase in african green monkey COS7 cells assessed as unprenylated Rab02A level by MudPIT analysis; format: cell-based

Chain of Protein farnesyltransferase subunit beta (Homo sapiens), P49356 [W102T,Y154T,Y205T] (P49356 whole entry W102T/Y154T/Y205T): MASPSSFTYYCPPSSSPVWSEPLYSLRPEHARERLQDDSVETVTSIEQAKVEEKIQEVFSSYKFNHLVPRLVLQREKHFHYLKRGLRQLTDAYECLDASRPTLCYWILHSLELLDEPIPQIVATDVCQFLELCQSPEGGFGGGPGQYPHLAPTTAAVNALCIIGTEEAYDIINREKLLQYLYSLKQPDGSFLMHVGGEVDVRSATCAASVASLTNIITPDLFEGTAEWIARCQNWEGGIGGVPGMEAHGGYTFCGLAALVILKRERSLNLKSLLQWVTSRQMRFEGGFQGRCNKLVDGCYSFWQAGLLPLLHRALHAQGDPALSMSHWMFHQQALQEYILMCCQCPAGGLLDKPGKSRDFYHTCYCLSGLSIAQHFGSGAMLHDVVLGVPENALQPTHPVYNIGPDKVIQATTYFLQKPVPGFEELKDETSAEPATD
Chain of Geranylgeranyl transferase type-1 subunit beta (Homo sapiens), P53609 [F52Y,F53Y,Y126T] (P53609 whole entry F52Y/F53Y/Y126T): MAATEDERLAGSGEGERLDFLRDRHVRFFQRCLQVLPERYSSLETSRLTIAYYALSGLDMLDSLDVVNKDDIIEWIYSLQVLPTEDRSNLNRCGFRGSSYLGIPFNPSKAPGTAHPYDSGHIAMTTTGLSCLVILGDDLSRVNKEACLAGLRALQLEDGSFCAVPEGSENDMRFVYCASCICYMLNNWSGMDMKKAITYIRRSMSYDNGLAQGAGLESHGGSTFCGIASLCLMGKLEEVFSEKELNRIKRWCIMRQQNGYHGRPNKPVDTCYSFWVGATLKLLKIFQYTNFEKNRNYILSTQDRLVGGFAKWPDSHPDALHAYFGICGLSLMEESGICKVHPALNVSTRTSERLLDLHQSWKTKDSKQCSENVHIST

SMILES: CSCC[C@H](NC(=O)[C@H](Cc1ccccc1)NC[C@@H](NC[C@@H](N)CS)C(C)C)C(=O)O
inhibition (COS-7 [1]): inactive

SMILES: COC(=O)[C@H](CC(C)C)NC(=O)c1ccc(NC[C@@H](N)CS)cc1-c1cccc2ccccc12
inhibition (COS-7 [2]): Active | inhibition (COS-7 [3]): Active | inhibition (COS-7 [4]): inactive

Activity [5]: inactive | Activity [6]: inactive | Activity [7]: inactive | Activity [8]: inactive
SMILES: CC(C)=CCC/C(C)=C/CC/C(C)=C/CC/C(C)=C/COP(=O)(O)OP(=O)(O)O

SMILES: CCC[C@@H]1[C@@H](Sc2ccc(OC)cc2)[C@@H](C(=O)O)[C@H](c2ccc(Br)cc2)N1S(=O)(=O)c1ccc(C)cc1
inhibition (COS-7 [9]): inactive

SMILES: CCCCCCS[C@H]1[C@@H](C(=O)O)[C@H](c2ccc(Br)cc2)N(S(=O)(=O)c2ccc(C)cc2)[C@@H]1CCC
inhibition (COS-7 [9]): inactive

SMILES: CC[C@H](C)C(=O)O[C@H]1CCC=C2C=C[C@H](C)[C@H](CC[C@@H]3C[C@@H](O)CC(=O)O3)[C@H]21
Activity (COS-7 [10]): 1.1 pmol | Activity (COS-7 [11]): 0.6 pmol | Activity (COS-7 [12]): 1.7 pmol | Activity (COS-7 [13]): 0.1 pmol | Activity (COS-7 [14]): 0.2 pmol | Activity (COS-7 [15]): 1.5 pmol | Activity (COS-7 [16]): 0.2 pmol | Activity (COS-7 [17]): 0.2 pmol | Activity (COS-7 [18]): 0.8 pmol | Activity (COS-7 [19]): 1.2 pmol | Activity (COS-7 [20]): 0.2 pmol | Activity (COS-7 [21]): 0.2 pmol | Activity (COS-7 [22]): 1.6 pmol | Activity (COS-7 [23]): 1.7 pmol | Activity (COS-7 [24]): 0.8 pmol | Activity (COS-7 [25]): 0.7 pmol | Activity (COS-7 [26]): 1.5 pmol | Activity (COS-7 [27]): 0.3 pmol | Activity (COS-7 [28]): 1.8 pmol | Activity (COS-7 [29]): 0.6 pmol | Activity (COS-7 [30]): 1.3 pmol | Activity (COS-7 [31]): 0.2 pmol | inhibition (COS-7 [32]): Active | Activity (COS-7 [33]): 0.2 pmol | Activity (COS-7 [34]): 0.6 pmol | Activity (COS-7 [35]): 0.1 pmol | Activity (COS-7 [36]): 0.4 pmol | Activity (COS-7 [37]): 0.1 pmol | Activity (COS-7 [38]): 0.7 pmol | Activity (COS-7 [39]): 0.6 pmol | Activity (COS-7 [40]): 0.2 pmol | Activity (COS-7 [41]): 0.2 pmol | Activity (COS-7 [42]): 0.2 pmol | Activity (COS-7 [43]): 0.4 pmol | Activity (COS-7 [44]): 0.5 pmol | Activity (COS-7 [45]): 1.1 pmol | Activity (COS-7 [46]): 0.1 pmol | Activity (COS-7 [47]): 1 pmol | Activity (COS-7 [48]): 0.3 pmol | Activity (COS-7 [49]): 0.8 pmol | Activity (COS-7 [50]): 0.4 pmol | Activity (COS-7 [51]): 0.4 pmol | Activity (COS-7 [52]): 1.2 pmol

SMILES: CCCCCCS[C@H]1[C@@H](C(=O)O)[C@H](c2ccc(Br)cc2)N(S(=O)(=O)c2ccc(C)cc2)[C@@H]1CCCCCC
inhibition (COS-7 [9]): inactive
